Like-named read-outs stand apart in the source and are kept apart here.
Legend:
[1] = target: T1, human OX2 receptors (Homo sapiens, UniProt O43614); test: biochemical
T1 sequence (O43614 1-444): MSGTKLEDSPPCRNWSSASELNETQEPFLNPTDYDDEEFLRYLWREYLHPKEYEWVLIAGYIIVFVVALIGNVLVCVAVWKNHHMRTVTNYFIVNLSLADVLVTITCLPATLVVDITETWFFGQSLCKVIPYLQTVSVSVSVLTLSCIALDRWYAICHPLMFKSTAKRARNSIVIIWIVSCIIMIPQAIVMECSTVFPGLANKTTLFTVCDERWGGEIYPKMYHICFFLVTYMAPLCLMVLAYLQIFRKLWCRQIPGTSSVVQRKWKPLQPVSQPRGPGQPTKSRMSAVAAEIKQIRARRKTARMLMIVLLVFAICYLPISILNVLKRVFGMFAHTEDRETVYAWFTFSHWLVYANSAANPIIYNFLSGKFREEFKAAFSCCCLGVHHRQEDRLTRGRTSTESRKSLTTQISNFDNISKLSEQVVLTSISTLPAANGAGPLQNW
Experimental: Briefly, the membranes were isolated by homogenizing cell pellet in 30 ml (w/v) 50 mM Tris buffer (pH 7.4) containing Roche Complete EDTA free protease tablets. […] All binding studies were conducted at a final volume of 200 μl. […] Then 300 μl of this solution was placed in column B on a Nunc polypropylene 96-well plate (Thermo Fisher Scientific, Inc., Rochester, NY). Serial dilutions were then made using a Biomek 2000 (Beckman Coulter, Inc., Fullerton, CA) from a starting concentration of 40 μM. […] All binding was terminated by rapid filtration using a TOMTEC 96-well cell harvester (Hamden, CT) through GF/A filters that had been presoaked with 0.3% polyethyleneimine. The filters were washed with 5.0 ml ice-cold 50 mM Tris buffer (pH 7.4) and air-dried overnight. […] Protein concentrations were measured using Coomassie Protein Plus Assay Reagent (Pierce, Rockford, IL) and serum albumin standards.

[2] = system: Sprague–Dawley rats; test: DRL 72-s schedule of reinforcement in rats; format: in vivo, rat; settings: for Lever Presses Mean / Reinforcers Mean: HSD rats DRL-72-s, raw data
Excerpt: Each chamber was enclosed in a melamine sound-attenuating cubicle. A white noise generator provided masking noise. The interior of each chamber consisted of three levers mounted on one wall with a house light mounted on the opposite wall. The house light was turned on at initiation of each test session and was turned off at the termination of each session. A water access port was situated next to the lever in the middle of the wall, wherein a reinforced response caused a clicker apparatus to sound paired with a dipper (0.02-ml cup) to be lifted from a water trough to an opening in the floor of the access port for 4 s.
Rats were initially trained under an alternative fixed ratio 1 water reinforcement schedule with a fixed 1-min time schedule for automatic reinforcement. Thus, each response was reinforced, with water also provided every minute in the absence of a response. […] Following acquisition of lever-pressing behavior, rats were trained daily on DRL 18-s sessions for ~2 weeks, following which they were advanced to DRL 72-s sessions. Responding on these sessions became stable after ~8 weeks. Experimental test sessions lasted for 1 h and were conducted 5 days/week during light hours.
(§1) Drugs were administered to the animals once or twice weekly with at least 1 week between subsequent drugs to minimize possible carryover effects. Drug treatments were administered on Tuesdays and Fridays. No treatments were administered on other test days. Wednesdays were control days. “Control” behavior was calculated as the pooled mean lever presses or reinforcers received during Wednesday sessions across all Wednesdays for the duration of each study. Performance was normalized to percent of control by dividing total responses (or reinforcers) for each drug or vehicle treatment by the mean number of responses (reinforcers) in the respective pooled control condition, multiplied by 100.
(§2) The data analyses were conducted on the raw response and reinforcement data. All behavioral data are expressed as the mean ± s.e.m. normalized to the control condition.

[3] = system: C57Bl/6 mice; test: DRL 36-s schedule of reinforcement in wild-type mice; format: in vivo, mouse; settings: for Lever Presses Mean / Reinforcers Mean: WT mice DRL-36-s, raw data
Excerpt: (§3) The levers in these chambers were mounted on one wall with an adjacent food magazine next to the lever in the middle of the wall. A reinforced response caused a clicker apparatus to activate and the pellet feeder to deposit one 45-mg sucrose pellet (BioServ, Frenchtown, NJ) into the food magazine. The house light, which was mounted on the ceiling, was turned on when the session began, remained on throughout the entire session, and was turned off at the end of the session. Each experimental chamber was enclosed in a melamine sound-attenuating cubicle and equipped with a white noise generator to provide masking noise.
(§4) Each mouse was initially trained under a variable time 60-s operant schedule for 5 days, followed by fixed ratio-1 ratio schedule for 5 days. After the mice had acquired lever-pressing behavior, they were trained during daily DRL 6-s sessions for ~1 week, then mice progressed through weekly ascending DRL requirements (12, 18, 24, 30 s) before moving to DRL 36-s sessions. […] Experimental sessions lasted for 45 min and were conducted 5 days/week during light hours.
as §1, §2

[4] = system: mice lacking OX1 receptors; test: DRL 36-s schedule of reinforcement in OX1 KO mice; format: in vivo, mouse; settings: for Lever Presses Mean / Reinforcers Mean: OX1 KO mice DRL-36-s, raw data
Excerpt: (§5) Rats were acclimated to housing conditions for 4 days, followed by sham dosing once daily for 3 days, prior to the experiment. For DRL experiments, male Sprague–Dawley rats weighing between 300 and 350 g at the beginning of the behavioral experiments (Holtzman, Madison, WI) were housed in pairs. For mouse DRL studies, male C57Bl/6 mice (Taconic Farms, Hudson, NY) or mice lacking either OX1 or OX2 receptors, around 8 weeks of age, were obtained from private breeding colonies at Taconic Farms (Hudson, NY). OX1 and OX2 receptor knockout mice were generated using in vitro fertilization of embryos in C57Bl/6 female mice with sperm harvested from male mice obtained from the University of Texas Southwestern Medical Center (Dallas, TX), and backcrossed for at least 10 generations. Mice and rats were housed in separate colony rooms, which were maintained at 22°C and 60% relative humidity. For rat DRL experiments, water was available for a 20-min period following the daily behavioral session. Based on recommendations from the animal care and use committee, the mouse DRL assay was developed using food deprivation rather than water deprivation. […] All experiments were conducted during the light cycle and in compliance with the Guide for the Care and Use of Laboratory Animals under protocols approved by a local animal care and use committee.
as §3, §4, §1, §2

[5] = system: mice lacking OX2 receptors; test: DRL 36-s schedule of reinforcement in OX2 KO mice; format: in vivo, mouse; settings: for Lever Presses Mean / Reinforcers Mean: OX2 KO mice DRL-36-s, raw data
Excerpt: as §5, §3, §4, §1, §2

[6] = C57Bl/6 mice DRL-36-s, significant at 100 mg/kg (Figure 5B legend)
[7] = dose 100 mg/kg PO, listed as almorexant inactive, 100 mg/kg
[8] = dose 100 mg/kg, listed as almorexant inactive
[9] = mice lacking OX1 receptors, 100 mg/kg

## CNC(=O)[C@@H](c1ccccc1)N1CCc2cc(OC)c(OC)cc2[C@@H]1CCc1ccc(C(F)(F)F)cc1 [Almorexant (S)]
[1]
  Ki: 6.9 ± 0.18 nM
[2]; dose 30 mg/kg PO
  Lever Presses Mean: 42.73
  Reinforcers Mean: 13.55
[2]; dose 60 mg/kg PO
  Lever Presses Mean: 51.91
  Reinforcers Mean: 17.91
[2]; dose 100 mg/kg PO
  Lever Presses Mean: 45.09
  Reinforcers Mean: 19.55
[2]; rats DRL-72-s, PO, 30–100 mg/kg
  Reduction in lever presses emitted, in words: did not reach statistical significance
[2]; rats DRL-72-s, PO, significant at 100 mg/kg (Figure 5A legend)
  Reinforcers received, effect in words: significant increase
[2]; reduced lever presses with increased reinforcers
  Doses with antidepressant-like efficacy in the rat DRL-72 sec model: 100 mg/kg
[3]; [6]
  Lever presses emitted: 47 % of control
  Reinforcers received: > 400 % of control
[3]; dose 10 mg/kg
  Lever Presses Mean: 174.25
  Reinforcers Mean: 14.00
[3]; dose 20 mg/kg
  Lever Presses Mean: 161.13
  Reinforcers Mean: 15.50
[3]; dose 40 mg/kg
  Lever Presses Mean: 172.38
  Reinforcers Mean: 20.25
[3]; dose 100 mg/kg
  Lever Presses Mean: 114.88
  Reinforcers Mean: 27.13
[4]; dose 10 mg/kg
  Lever Presses Mean: 111.38
  Reinforcers Mean: 33.00
[4]; dose 20 mg/kg
  Lever Presses Mean: 124.75
  Reinforcers Mean: 30.50
[4]; dose 40 mg/kg
  Lever Presses Mean: 108.25
  Reinforcers Mean: 34.63
[4]; dose 60 mg/kg
  Lever Presses Mean: 110.13
  Reinforcers Mean: 29.13
[4]; mice lacking OX1 receptors, all doses 10–60 mg/kg
  Lever presses emitted, effect in words: reduced the number of lever presses emitted
[4]; mice lacking OX1 receptors, at 10 and 40 mg/kg
  Reinforcers received, effect in words: significant increase
[5]; dose 20 mg/kg
  Lever Presses Mean: 162.63
  Reinforcers Mean: 28.75
[5]; dose 40 mg/kg
  Lever Presses Mean: 179.25
  Reinforcers Mean: 20.50
[5]; dose 100 mg/kg
  Lever Presses Mean: 158.13
  Reinforcers Mean: 24.75
[5]; mice lacking OX2 receptors, up to 100 mg/kg
  Antidepressant-like effect in DRL, in words: completely abolished

## CNC(=O)[C@@H](c1ccccc1)N1CCc2cc(OC)c(OC)cc2[C@@H]1CCc1ccc(C(F)(F)F)cc1 [Almorexant (R)]
[1]; HEK293 membranes, [125I]-orexin A, 90 min, mean ± s.e.m. (n)
  Receptor binding affinity, Ki OX2: inactive
[1]; read-out: Receptor binding affinity, Ki OX2, HEK293 membranes, [125I]-orexin A, 90 min, mean ± s.e.m. (n)
  Ki: > 10000 nM
[2]; [7]
  Lever Presses Mean: 64.73
  Reinforcers Mean: 15.27
[2]; rats DRL-72-s, 100 mg/kg
  Effect on DRL behavior, in words: no effect on behavior
[3]; C57Bl/6 mice DRL-36-s, 100 mg/kg
  Effect on DRL behavior, in words: no significant effects on behavior
[3]; [8]
  Lever Presses Mean: 233.00
  Reinforcers Mean: 11.00
[4]; dose 100 mg/kg
  Lever Presses Mean: 103.75
  Reinforcers Mean: 28.88
[4]; [9]
  Lever pressing, effect in words: significant decrease
  Reinforcers received, effect in words: significant increases
[5]; [8]
  Lever Presses Mean: 112.88
  Reinforcers Mean: 25.13
[5]; mice lacking OX2 receptors, 100 mg/kg
  Reinforcers received, effect in words: did not significantly affect
[5]; mice lacking OX2 receptors, DRL-36-s, 100 mg/kg
  Lever presses emitted: 65 % of control
